Consider 1 substance from patent US10213494B2, “Treatment of synucleinopathies” (The Brigham and Women's Hospital, Inc., priority 2007, dated 2019).

The subject of data set [1] is A30P, E46K, A53T, S129D, S129A and DQ/AA variants of α-synuclein in MES23.5 cells. Put plainly: Sandwich ELISA of mutant α-synuclein variants in MES23.5 cells co-transfected with CTSD cDNA. The data set is classed as cell-based, human. Conditions: cathepsin D cDNA 5 μg/10 cm dish. How it is done:
Sera from six rabbits were raised and affinity-purified at Open Biosystems, Inc. (openbiosystems.com) against recombinant, full-length human αS. Recombinant αS had been HPLC- and MS-characterized and subjected to amino acid composition and protein concentration analyses. For ELISA, 384-well MaxiSorp plates (Nunc, Inc) were coated with 50 μl/well capturing polyclonal Ab (hSA-2) diluted in coating buffer (NaHCO3 with 0.2% NaN3, pH 9.6). Following washes with PBS/0.05% Tween-20 (PBS-T), plates were blocked for 2 hours at 37° C. in blocking buffer (1.125% fish skin gelatin; PBS-T). After 4 washes, samples were loaded and incubated at 4° C. for 12 hours. Biotinylated Syn-1 mAb (as the assaying Ab) was generated using 200 μg Sulfo-NHS-LC Biotin (Pierce), diluted in blocking buffer and added to the plate for 2 hours at 37° C. Following 4 washes, ExtrAvidin phosphatase (Sigma) diluted in blocking buffer was applied for 1 hr at 37° C. Color development was carried out by using Fast-p-Nitrophenyl Phosphate (Sigma) and monitored kinetically at OD 405 nm every 5 minutes for up to 60 minutes.
To examine whether Cathepsin D could also reduce the levels of missense mutation-carrying αS proteins, MES23.5 cells were transfected with low amounts (0.5 μg/10 cm dish) of SNCA cDNA encoding either the A30P, E46K or A53T variants of α-synuclein which are linked to familial Parkinson Disease in humans, as well as a S129D and a S129A mutant. Phosphorylation of αS at the Serine 129 residue is known to be a pathological hallmark of αS aggregates in vivo (Anderson J et al., 2006, J Biol Chem, 281:29739-29752). Mutation of a Ser residue to Asp is known in the art to mimic sustained, serine-based phosphorylation. The S129A mutant, a phosphorylation-incompetent mutant of αS, was also included for comparison.
As shown in the bar graph of FIG. 7, the co-expression of Cathepsin D-encoding CTSD cDNA (5 μg/10 cm dish) with either A30P, E46K, A53T, S129D, or S129A αS caused a similar degree reduction in αS levels for all αS proteins examined, when compared to their co-expression with empty vector DNA. When comparing the changes in α-synuclein steady-state to well-characterized levels of recombinant α-synuclein protein that was loaded in parallel, it was estimated that cathepsin D over-expression (at a cDNA concentration of 5 μg/10 cm dish) led to intracellular α-synuclein levels that were 23.98+/−3.57%, 33.08+/−18.51%, 39.21+/−14.63%, 34.84+/−11.36% and 34.31+/−13.39% of cognate control levels, for A30P, E46K, A53T, S129D, or S129A αS polypeptides, respectively (n=2 (−3) from 2-3 independent experiments).
Of note, residues D98 and Q99 of αS represent the motif by which αS is recognized by the Lamp2a receptor during chaperone mediated autophagy (CMA); Cuervo et al, 2004, Science, vol 305, pp 1292-1295). To investigate the importance of this motif in the αS-lowering action induced by cathepsin D, MES 23.5 cells were also transfected with a cDNA (0.5 μg/10 cm dish) encoding a mutant αS variant, where the D98 and Q99 residues had both been changed to Alanine (A) by site-directed mutagenesis (i.e., DQ/AA-variant of αS). When comparing the changes in the DQ/AA-αS steady-state to well-characterized levels of recombinant α-synuclein protein that were loaded in parallel, it was estimated that cathepsin D over-expression (5 μg/10 cm dish) led to intracellular DQ/AA αS levels that were 22.14+/−5.32% of the vector control levels, (n=3, from 3 independent experiments; not shown).
In general terms: In an ELISA, binding on a coated surface is turned into a signal by an enzyme label.

Data set [2] relates to rat αS in MES23.5 cells. Put plainly: Sandwich ELISA of co-transfected rat αS in MES23.5 cells. The data set is classed as cell-based. The following applies: human Cathepsin D, same paradigm.
In data set [3] the test system is MES-syn cells. Put plainly: MTT assay of cellular metabolism. The data set is classed as cell-based, rodent. The following applies: CTSD cDNA 5 μg/10 cm dish; control vector 100+/−4.05%; n=6. On the procedure: (§1) To confirm that the effect of Cathepsin D on lowering of αS in MES23.5 cells was specific and was not caused by a general decrease in cellular metabolism and integrity, the MTT and LDH assays were performed on MES-syn cells that had been co-transfected with the highest amount of Cathepsin D-encoding cDNA (5 μg/10 cm dish). Lysis of cells with 0.1% Triton-X® 100 served as a positive control, representing maximal cell death.
A general note: Tetrazolium assays rely on reduction of a dye to a coloured formazan, in cell work by metabolically active cells.

Data set [4] concerns MES-syn cells. Put plainly: LDH release assay of cellular integrity. The following applies: enzyme cDNA 5 μg/10 cm dish, versus control vector transfected cells. The data set is classed as cell-based, rodent. On the procedure: as §1
To confirm that the effect of Cathepsin F on lowering of αS was specific and was not caused by a general decrease in cellular integrity, the LDH assay was performed on MES-syn cells that had been co-transfected with Cathepsin F-encoding CTSF cDNA (5 μg/10 cm dish). Lysis of cells with 0.1% Triton-X 100 served as a positive control for cell toxicity, promoting maximal cell death.
(LDH leaks from cells whose membrane has failed.)

“cathepsin D: human lysosomal aspartyl protease expressed from CTSD cDNA plasmid under a CMV promoter”: the “intracellular α-synuclein level, % of cognate control levels” value was 23.98+/−3.57% in data set [1] (A30P αS); 39.21+/−14.63% in data set [1] (A53T αS); 33.08+/−18.51% in data set [1] (E46K αS); 34.31+/−13.39% in data set [1] (S129A αS); 34.84+/−11.36% in data set [1] (S129D αS). For the same substance, the “intracellular DQ/AA αS level, % of vector control levels” value in data set [1] (DQ/AA αS (D98A/Q99A), n=3) is given as 22.14+/−5.32%. The “effect on level of co-transfected rat αS” value in data set [2] is given as “able to lower the levels of co-transfected rat αS”. The MTT signal in data set [3] was 101.3+/−3.91%. Besides, the LDH signal result in data set [4] is recorded as “identical to that of control vector transfected cells”.
